Assay results: patent publication US20240360165A1, “INHIBITORS OF CYCLIN DEPENDENT KINASE 7 (CDK7)” (Syros Pharmaceuticals, Inc., priority 2016, published 2024)
pIC50: −log10 of the molar value. Where two headings read alike, the source gives them in different places.

How the values were obtained:
CDK9/Cyclin T1 complex = CDK9/Cyclin T1 complex (Homo sapiens, UniProt P50750); assay: CDK9 inhibition assay (Caliper/LabChip EZ Reader kinase assay); format: biochemical; conditions: Table 1; CDK9/Cyclin T1 8 nM, ATP 2 mM, 15 min at 27° C.
Summary of the method: (§1)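 Caliper/LabChip EZ Reader mobility-shift assays. CDK9/Cyclin T1 at 8 nM with 2 μM 5-FAM-CDK9tide peptide and 10 mM MgCl2; CDK2/Cyclin E1 at 0.5 nM with 2 μM 5-FAM-CDK7tide and 2 mM MgCl2.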

[1] = molecular target: T1, CDK12 (aa686-1082)/Cyclin K complex (Homo sapiens, UniProt Q9NYV4); assay: CDK12 inhibition assay (Caliper/LabChip EZ Reader kinase assay); format: biochemical; conditions: Table 1; CDK12 (aa686-1082)/Cyclin K 50 nM, ATP 2 mM, 3 hr at 27° C.
T1 construct: CDK12 (aa686-1082)/Cyclin K complex

CDK2/Cyclin E1 complex = CDK2/Cyclin E1 complex (Homo sapiens, UniProt P24941); assay: CDK2 inhibition assay (Caliper/LabChip EZ Reader kinase assay); format: biochemical; conditions: Table 1; CDK2/Cyclin E1 0.5 nM, ATP 2 mM, 35 min at 27° C.
Summary of the method: as §1

A673 cells = assay: Inhibition of proliferation of A673 cells (CyQUANT, 72 hour); format: cell-based, human; conditions: A673 cells, 72 hour, CyQUANT, read-out: Inhibition of Proliferation of A673 Cells (calculated IC50)
Summary of the method: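 Human Ewing's sarcoma A673 cells in DMEM with 10% FBS and 1 mM sodium pyruvate, 37° C, 5% CO2, treated 72 h with compound from 4 μM to […] (0.5 log dilutions). Antiproliferative effect read by CyQUANT assay.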

HCC70 cells = assay: Inhibition of proliferation of HCC70 cells (CyQUANT Direct Cell Proliferation Assay, 72 hour); format: cell-based, human; conditions: read-out: Inhibition of Proliferation of HCC70 Cells (calculated IC50)
Summary of the method: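 Human triple-negative breast cancer HCC70 cells cultured at 37° C, 5% CO2, with compound for 72 hour. Anti-proliferative effect read by CyQUANT Direct Cell Proliferation Assay. Dinaciclib, a CDK inhibitor analog and triptolide served as positive controls.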

[2] = molecular target: CDK7/Cyclin H/MAT1 complex (Homo sapiens, UniProt P50613); assay: CDK7 inhibition assay (Caliper/LabChip EZ Reader kinase assay); format: biochemical; conditions: Table 1; CDK7/Cyclin H/MAT1 6 nM, ATP 2 mM, 35 min at 27° C.
Summary of the method: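 A Perkin Elmer Caliper/LabChip EZ Reader (Waltham, MA) platform served as the basis for this CDK7 kinase inhibition assay. The work was carried out by Biortus Biosciences, located in Jiangyin, Jiangsu Province, P.R. of China. Each CDK studied had its own kinase assay, and compounds were evaluated for their ability to block CDK7 activity.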

Sequence of CDK9/Cyclin T1 complex (P50750 whole entry, species assumed): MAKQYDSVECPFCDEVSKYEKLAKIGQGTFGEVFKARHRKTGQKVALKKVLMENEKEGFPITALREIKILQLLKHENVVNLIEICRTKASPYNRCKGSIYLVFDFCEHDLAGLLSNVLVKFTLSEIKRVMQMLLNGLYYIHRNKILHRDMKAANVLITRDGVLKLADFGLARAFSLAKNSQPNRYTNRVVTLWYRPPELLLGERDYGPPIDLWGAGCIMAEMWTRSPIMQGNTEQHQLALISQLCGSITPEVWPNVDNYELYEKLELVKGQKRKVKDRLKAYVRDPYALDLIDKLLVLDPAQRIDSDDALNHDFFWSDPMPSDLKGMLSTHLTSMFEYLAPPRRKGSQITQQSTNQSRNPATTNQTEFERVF
Sequence of CDK9/Cyclin T1 complex (O60563 whole entry partner, species assumed): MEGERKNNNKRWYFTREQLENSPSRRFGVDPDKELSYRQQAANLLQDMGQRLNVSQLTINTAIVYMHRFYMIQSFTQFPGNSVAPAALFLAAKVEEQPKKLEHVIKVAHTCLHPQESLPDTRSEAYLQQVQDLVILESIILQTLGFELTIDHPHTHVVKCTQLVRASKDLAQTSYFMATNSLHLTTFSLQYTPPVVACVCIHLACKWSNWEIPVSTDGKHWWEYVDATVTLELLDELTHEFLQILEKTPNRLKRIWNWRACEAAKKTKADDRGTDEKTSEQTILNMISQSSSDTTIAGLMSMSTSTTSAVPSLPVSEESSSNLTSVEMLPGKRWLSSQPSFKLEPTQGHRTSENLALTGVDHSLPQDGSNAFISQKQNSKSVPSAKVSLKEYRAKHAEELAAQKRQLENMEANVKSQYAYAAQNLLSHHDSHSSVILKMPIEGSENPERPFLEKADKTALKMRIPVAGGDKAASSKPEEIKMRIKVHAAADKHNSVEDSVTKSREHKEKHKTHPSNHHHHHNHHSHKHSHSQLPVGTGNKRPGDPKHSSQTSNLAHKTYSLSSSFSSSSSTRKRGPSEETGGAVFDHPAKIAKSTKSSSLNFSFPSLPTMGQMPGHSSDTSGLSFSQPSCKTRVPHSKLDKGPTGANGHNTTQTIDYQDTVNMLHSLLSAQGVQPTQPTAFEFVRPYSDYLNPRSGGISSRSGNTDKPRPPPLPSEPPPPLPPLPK
T1 sequence (Q9NYV4 686-1082, species assumed): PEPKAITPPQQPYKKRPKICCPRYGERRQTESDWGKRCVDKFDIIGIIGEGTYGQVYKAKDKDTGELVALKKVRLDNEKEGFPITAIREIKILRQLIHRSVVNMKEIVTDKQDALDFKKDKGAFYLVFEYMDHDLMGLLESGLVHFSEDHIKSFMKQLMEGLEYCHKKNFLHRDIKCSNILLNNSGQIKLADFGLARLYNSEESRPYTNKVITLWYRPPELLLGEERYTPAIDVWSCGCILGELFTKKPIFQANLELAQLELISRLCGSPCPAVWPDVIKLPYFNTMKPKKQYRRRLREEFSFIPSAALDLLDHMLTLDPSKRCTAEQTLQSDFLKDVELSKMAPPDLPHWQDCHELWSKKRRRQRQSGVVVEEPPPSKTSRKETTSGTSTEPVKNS
T1 sequence (O75909 whole entry partner, species assumed, the tested form may be a part): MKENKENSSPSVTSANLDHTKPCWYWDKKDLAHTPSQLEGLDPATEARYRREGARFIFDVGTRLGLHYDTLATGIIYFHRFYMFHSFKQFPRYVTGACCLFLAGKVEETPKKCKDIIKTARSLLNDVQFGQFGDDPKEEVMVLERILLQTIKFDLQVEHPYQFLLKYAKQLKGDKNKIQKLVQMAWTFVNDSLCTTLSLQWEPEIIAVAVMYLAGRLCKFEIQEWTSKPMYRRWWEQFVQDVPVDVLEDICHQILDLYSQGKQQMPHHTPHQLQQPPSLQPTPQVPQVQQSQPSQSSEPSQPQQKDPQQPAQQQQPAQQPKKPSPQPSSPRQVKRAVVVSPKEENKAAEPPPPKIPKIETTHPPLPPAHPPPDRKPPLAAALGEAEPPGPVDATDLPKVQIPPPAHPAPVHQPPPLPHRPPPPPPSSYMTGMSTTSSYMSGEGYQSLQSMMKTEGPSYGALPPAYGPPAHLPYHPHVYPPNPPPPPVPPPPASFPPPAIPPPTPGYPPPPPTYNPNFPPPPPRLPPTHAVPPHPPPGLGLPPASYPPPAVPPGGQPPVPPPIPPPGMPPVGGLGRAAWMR
Sequence of CDK7/Cyclin H/MAT1 complex (P50613 whole entry, species assumed): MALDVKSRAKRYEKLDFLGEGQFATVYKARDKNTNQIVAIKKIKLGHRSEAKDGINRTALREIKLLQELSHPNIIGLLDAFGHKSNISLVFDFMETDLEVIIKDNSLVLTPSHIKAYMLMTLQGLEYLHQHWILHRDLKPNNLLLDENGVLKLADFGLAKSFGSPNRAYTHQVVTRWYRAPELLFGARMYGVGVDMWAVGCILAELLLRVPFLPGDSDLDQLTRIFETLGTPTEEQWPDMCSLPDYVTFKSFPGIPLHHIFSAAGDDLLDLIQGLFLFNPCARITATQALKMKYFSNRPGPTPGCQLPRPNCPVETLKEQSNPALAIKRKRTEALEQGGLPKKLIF
Sequence of CDK7/Cyclin H/MAT1 complex (P51946 whole entry partner, species assumed): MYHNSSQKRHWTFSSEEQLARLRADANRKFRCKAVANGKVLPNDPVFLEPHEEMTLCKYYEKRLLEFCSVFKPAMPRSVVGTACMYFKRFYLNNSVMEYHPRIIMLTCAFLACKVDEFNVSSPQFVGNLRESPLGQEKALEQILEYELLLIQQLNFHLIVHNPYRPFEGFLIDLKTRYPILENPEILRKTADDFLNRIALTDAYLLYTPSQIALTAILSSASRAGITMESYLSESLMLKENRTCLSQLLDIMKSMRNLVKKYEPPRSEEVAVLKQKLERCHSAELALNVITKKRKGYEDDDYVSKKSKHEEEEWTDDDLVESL
Sequence of CDK7/Cyclin H/MAT1 complex (P51948 whole entry partner, species assumed): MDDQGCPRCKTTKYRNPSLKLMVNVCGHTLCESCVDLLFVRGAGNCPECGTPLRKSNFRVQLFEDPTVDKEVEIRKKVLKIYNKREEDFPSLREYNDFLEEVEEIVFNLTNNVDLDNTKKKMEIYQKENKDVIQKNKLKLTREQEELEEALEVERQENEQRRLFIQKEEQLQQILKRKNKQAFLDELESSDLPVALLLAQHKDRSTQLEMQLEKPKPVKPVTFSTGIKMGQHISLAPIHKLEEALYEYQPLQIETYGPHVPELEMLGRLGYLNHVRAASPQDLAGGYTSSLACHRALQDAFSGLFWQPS

Structure (SMILES)	pIC50 (CDK9/Cyclin T1 complex)	pIC50 [1]	pIC50 (CDK2/Cyclin E1 complex)	pIC50 (A673 cells)	pIC50 (HCC70 cells)	pIC50 [2]	pIC50 (A673 cells; Homo sapiens, A673, 72 h)	pIC50 (HCC70 cells; Homo sapiens, HCC70, 72 h)
OC1CCC(c2cccc3c(-c4nc(N[C@H]5CCCNC5)ncc4C(F)(F)F)c[nH]c23)CC1 (stereo partly drawn) [Compound 185]	5.30 to 6.70	5.30 to 6.70	6.70 to 7.70	> 7.70	> 7.00	> 7.70	–	–
CC1(C)CC[C@H](Nc2ncc(C(F)(F)F)c(-c3c[nH]c4ccccc34)n2)CN1 [Compound 190]	5.30 to 6.70	5.30 to 6.70	5.30 to 6.70	–	–	> 7.70	> 7.70	6.00 to 7.00
CS(=O)(=O)c1ccc2c(-c3nc(N[C@H]4CCCNC4)ncc3C(F)(F)F)c[nH]c2c1 [Compound 199, 4-(6-methylsulfonyl-1H-indol-3-yl)-N-[(3S)-3-piperidyl]-5-(trifluoromethyl) pyrimidin-2-amine]	5.30 to 6.70	5.30 to 6.70	5.30 to 6.70	–	–	> 7.70	> 7.70	6.00 to 7.00
CS(=O)(=O)c1c(C#N)ccc2c(-c3nc(N[C@H]4CCCNC4)ncc3C(F)(F)F)c[nH]c12 [Compound 232, 7-methylsulfonyl-3-[2-[[(3S)-3-piperidyl]amino]-5-(trifluoromethyl)pyrimidin-4-yl]-1H-indole-6-carbonitrile]	5.30 to 6.70	5.30 to 6.70	5.30 to 6.70	–	–	> 7.70	> 7.70	> 7.00
CCc1cnc(N[C@H]2CCCNC2)nc1-c1c[nH]c2cc(C#N)ccc12 [Compound 246]	< 5.30	< 5.30	< 5.30	5.30 to 6.70	6.00 to 7.00	> 7.70	–	–
N#Cc1ccc2c(-c3nc(N[C@H]4CCCNC4)ncc3C(F)(F)F)c[nH]c2n1 [Compound 251, 3-[2-[[(3S)-3-piperidyl]amino]-5-(trifluoromethyl)pyrimidin-4-yl]-1H-pyrrolo [2,3-b] pyridine-6-carbonitrile]	5.30 to 6.70	5.30 to 6.70	5.30 to 6.70	–	–	> 7.70	> 7.70	> 7.00
N#Cc1ccc2c(-c3nc(N[C@H]4CCCNC4)ncc3C(F)(F)F)c[nH]c2c1-c1ccnnc1 [Compound 261, 3-[2-[[(3S)-3-piperidyl]amino]-5-(trifluoromethyl)pyrimidin-4-yl]-7-pyridazin-4-yl-1H-indole-6-carbonitrile]	5.30 to 6.70	5.30 to 6.70	5.30 to 6.70	–	–	6.70 to 7.70	> 7.70	> 7.00
CCc1cnc(N[C@H]2CCCNC2)nc1-c1c[nH]c2c(S(C)(=O)=O)c(C#N)ccc12 [Compound 263, 3-[5-ethyl-2-[[(3S)-3-piperidyl]amino]pyrimidin-4-yl]-7-methylsulfonyl-1H-indole-6-carbonitrile]	< 5.30	< 5.30	< 5.30	–	–	> 7.70	6.70 to 7.70	6.00 to 7.00
C=CC(=O)N1CCC(CO[C@H]2CNC[C@@H](Nc3ncc(C(F)(F)F)c(-c4c[nH]c5c(S(C)(=O)=O)cccc45)n3)C2)CC1 [Compound 264]	< 5.30	5.30 to 6.70	< 5.30	–	–	6.70 to 7.70	> 7.70	6.00 to 7.00
FC(F)(F)c1cnc(N[C@@H]2CNC[C@H](c3nnc4ccccn34)C2)nc1-c1c[nH]c2ccccc12 [Compound 267]	5.30 to 6.70	5.30 to 6.70	5.30 to 6.70	> 7.70	> 7.00	6.70 to 7.70	–	–
Cn1cc(-c2nc(NC3CCCNC3)ncc2C(F)(F)F)c2ccc(C#N)nc21 (stereo not drawn) [Compound 273]	< 5.30	< 5.30	< 5.30	–	–	5.30 to 6.70	5.30 to 6.70	5.30 to 6.00
CCc1cnc(N[C@H]2CCCNC2)nc1-c1n[nH]c2nc(C#N)ccc12 [Compound 277, (S)-3-(5-ethyl-2-(piperidin-3-ylamino)pyrimidin-4-yl)-1H-pyrazolo[3,4-b]pyridine-6-carbonitrile]	5.30 to 6.70	5.30 to 6.70	5.30 to 6.70	–	–	> 7.70	6.70 to 7.70	6.00 to 7.00
O=C(c1ccc2c(-c3nc(N[C@H]4CCCNC4)ncc3C(F)(F)F)c[nH]c2c1)N1CCCC1 [Compound 278, [3-[2-[[(3S)-3-piperidyl]amino]-5-(trifluoromethyl)pyrimidin-4-yl]-1H-indol-6-yl]-Pyrrolidin-1-yl-methanone]	< 5.30	5.30 to 6.70	5.30 to 6.70	–	–	6.70 to 7.70	6.70 to 7.70	6.00 to 7.00
Cn1cc(-c2nc(NC3CCCNC3)ncc2C(F)(F)F)c2cccc(C#N)c21 (stereo not drawn) [Compound 279]	< 5.30	< 5.30	< 5.30	–	–	6.70 to 7.70	5.30 to 6.70	5.30 to 6.00
COCn1cc(-c2nc(NC3CCCNC3)ncc2C(F)(F)F)c2ccc(C#N)nc21 (stereo not drawn) [Compound 283]	< 5.30	< 5.30	< 5.30	–	–	5.30 to 6.70	5.30 to 6.70	5.30 to 6.00
CCN1CCC[C@H](Nc2ncc(C(F)(F)F)c(-c3c[nH]c4cc(C#N)ccc34)n2)C1 [Compound 284]	5.30 to 6.70	5.30 to 6.70	5.30 to 6.70	–	–	> 7.70	6.70 to 7.70	6.00 to 7.00
C[C@H]1CCNC[C@H]1Nc1ncc(C(F)(F)F)c(-c2c[nH]c3ccccc23)n1 [Compound 285]	< 5.30	< 5.30	< 5.30	–	–	5.30 to 6.70	> 7.70	> 7.00
CCS(=O)(=O)c1cccc2c(-c3nc(N[C@H]4CCCNC4)ncc3C(F)(F)F)c[nH]c12 [Compound 286]	5.30 to 6.70	5.30 to 6.70	5.30 to 6.70	–	–	> 7.70	5.30 to 6.70	5.30 to 6.00
CCc1cnc(N[C@H]2CCCNC2)nc1-c1c[nH]c2nc(C#N)ccc12 [Compound 287, (S)-3-(5-ethyl-2-(piperidin-3-ylamino)pyrimidin-4-yl)-1H-pyrrolo[2,3-b]pyridine-6-carbonitrile]	< 5.30	< 5.30	< 5.30	–	–	> 7.70	6.70 to 7.70	6.00 to 7.00
FC(F)n1ccc(-c2ccc3c(-c4nc(N[C@H]5CCCNC5)ncc4C(F)(F)F)c[nH]c3c2)n1 [Compound 289, 4-[6-[1-(difluoromethyl)pyrazol-3-yl]-1H-indol-3-yl]-N-[(3S)-3-piperidyl]-5-(trifluoromethyl) pyrimidin-2-amine]	5.30 to 6.70	5.30 to 6.70	5.30 to 6.70	–	–	6.70 to 7.70	6.70 to 7.70	6.00 to 7.00
